Each structure is given as a SMILES string. Entries after “also recorded” stand apart in the source; their conditions may differ.

One data set has as its target T1, hS1P1 (Homo sapiens, UniProt P21453).
T1 construct: expressed in transfected cells; host or cells: CHO-K1
Briefly: Tango β-arrestin recruitment assay, Tango-hS1P1-CHO. Type of data set: cell-based. The settings on record: final concentration 45 µM, 9 serial dilutions at 5-fold intervals; 20 h drug treatment; luciferase readout. The source says:
(§1) The Tango assay detects ligand-dependent GPCR activity through the interaction between β-arrestin and GPCRs. […] The NTEV fragment and the tetracycline transactivator (tTA), an artificial transcription factor, are fused at the C-terminus of the GPCR, while the CTEV fragment is fused to human β-arrestin 2. To enhance the stability of the interaction between GPCR and β-arrestin, a short sequence from the C-terminus of the human arginine vasopressin receptor 2 (V2 tail) is inserted between the GPCR and NTEV. The V2 tail contains multiple GRK phosphorylation sites, which strengthen β-arrestin binding upon phosphorylation. The CTEV fragment carries the stabile point mutation S219P and is truncated at residue 221 to remove the autoinhibitory C-terminal tail. Meanwhile, β-arrestin 2 is truncated to lack the entire C-terminal tail (residues 383-410 deleted). This truncation confers robust stimulus-dependent receptor desensitization, thereby improving detection sensitivity compared with wild-type β-arrestin 2. The UAS reporter construct consists of upstream activating sequence (UAS) elements, a minimal CMV promoter, and a tTA-dependent luciferase reporter gene. Therefore, constructing Tango cells requires the co-transfection of the above three plasmids into host cells. Upon GPCR activation and β-arrestin recruitment, the TEV enzyme at the β-arrestin terminus cleaves tTA from the GPCR C-terminus. The released tTA initiates tTA-dependent luciferase transcription, and compound activity is ultimately determined by measuring luminescence intensity.
(§2) • 1) Tango cell line from was digested from the culture dish respectively. After cell counting, the cells were plated at a density of 10,000 cells per well with […] into a white opaque 96-well plate (add 60 µL D'Hanks to the surrounding wells), and incubated overnight (20 h) in a 5% CO2 incubator at 37°C. The cell density will reach approximately 90% the next day. • 2) After 20 h, 30 µL of serially diluted compound solution was added to each well. The control group was supplemented with 30 µL F12K complete medium. Each group had three replicate wells. • 3) Samples were collected after 20 h of drug treatment.
(§3) (All compounds were tested at a final concentration of 45 µM, with 9 serial dilutions at 5-fold intervals. 1 µM BAF-312 was used as the positive control for S1PR1, and 25 µM BAF-312 was used as the positive control for S1PR4.)
(§4) ^a β-arrestin recruitment activity based on Tango-S1PR1-CHO-K1 and Tango-S1PR4-CHO-K1 cells, expressed as mean EC50 values ± SD. ^b FLIPR assays were performed using S1PR2-CHO and S1PR5-CHO cell lines, expressed as mean EC50 values ± SD. ^c β-arrestin recruitment activity based on PathHunter CHO-K1-S1PR3 cells, expressed as mean EC50 values ± SD. Data are the mean of at least two independent determinations, reported as mean ± SD (standard deviation).
A general note: Recruitment of arrestin is a read-out of receptor activation apart from second messengers.

The next data set has as its target T2, hS1P4 (Homo sapiens, UniProt O95977).
T2 construct: expressed in transfected cells; host or cells: CHO-K1
T2 sequence (O95977 1-384): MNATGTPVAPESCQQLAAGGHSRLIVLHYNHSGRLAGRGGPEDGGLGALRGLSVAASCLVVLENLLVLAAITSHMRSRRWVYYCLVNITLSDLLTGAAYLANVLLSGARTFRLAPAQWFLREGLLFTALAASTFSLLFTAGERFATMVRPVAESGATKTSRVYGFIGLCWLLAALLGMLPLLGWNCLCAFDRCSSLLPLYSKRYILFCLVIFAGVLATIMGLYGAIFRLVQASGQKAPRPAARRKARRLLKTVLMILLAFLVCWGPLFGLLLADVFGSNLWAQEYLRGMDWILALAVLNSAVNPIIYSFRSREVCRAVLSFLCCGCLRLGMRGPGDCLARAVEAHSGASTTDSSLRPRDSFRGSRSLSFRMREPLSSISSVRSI
Briefly: Tango β-arrestin recruitment assay, Tango-hS1P4-CHO. Type of data set: cell-based. The note with it: final concentration 45 µM, 9 serial dilutions at 5-fold intervals; 20 h drug treatment; luciferase readout.
From the text: as §1, §2, §3, §4

Data set [1] has as its system S1PR4-R82C/NDUFA10-R217W double-mutant mice. Briefly: In vivo efficacy in S1PR4-R82C/NDUFA10-R217W double-mutant muscular dystrophy mice. The note with it: 1 mg/kg intragastric once daily. The protocol: Experimental Animals: A total of 34 S1PR4-R82C/NDUFA10-R217W mice were divided into 6 groups as shown below.
Intragastric administration was initiated on Day 0, and body weight was measured daily during the experiment to adjust the drug dosage. Grip strength was measured at the beginning and end of the experiment to observe motor changes in mice. Changes in the limb grip strength, serum creatine kinase content, and muscle fibrosis/inflammation in mice were detected as indicators for evaluating drug efficacy.
(§5) The mouse was placed horizontally on the grip test board. The mouse's tail was held and pulled gently in the opposite direction without using excessive force. The tail was gradually pulled until the mouse released the grip force sensor. The maximum value recorded by the grip force sensor is the grip strength. The test was repeated for 3 times and the average value was taken.
(§6) After the completion of administration, blood was collected via the orbital sinus, allowed to stand for 30 minutes, centrifuged at 3000 rpm at 4°C for 15 minutes, and serum was extracted, stored frozen at -20°C, and detected in accordance with the kit instructions.
(§7) After the experiment, the tibialis anterior, extensor digitorum longus, and diaphragm of the mice were harvested, fixed, sectioned, and subjected to HE staining and Sirius Red staining to observe the degree of muscle fibrosis. The slice was subjected to immunofluorescence staining with F4/80 to observe the level of muscle inflammation.

In data set [2] the test system is Duchenne muscular dystrophy model mice. Briefly: In vivo pharmacodynamic test in Duchenne muscular dystrophy model mice (Compound 30). As to the method:
Experimental Animals: A total of 35 Duchenne muscular dystrophy model mice were divided into 6 groups as shown below.
Intragastric administration was initiated from Day 0. Body weight was measured daily during the experiment to adjust the drug dosage. Grip strength tests were performed every 2 days to observe changes in the mice's grip strength until the experiment concluded on Day 21. Changes in the limb grip strength, serum creatine kinase content, and muscle fibrosis/inflammation in the mice were detected as indicators for evaluating drug efficacy.
as §5, §6, §7

Setting [3] is: 1 mg/kg intragastric once daily.

T1 sequence (P21453 whole entry): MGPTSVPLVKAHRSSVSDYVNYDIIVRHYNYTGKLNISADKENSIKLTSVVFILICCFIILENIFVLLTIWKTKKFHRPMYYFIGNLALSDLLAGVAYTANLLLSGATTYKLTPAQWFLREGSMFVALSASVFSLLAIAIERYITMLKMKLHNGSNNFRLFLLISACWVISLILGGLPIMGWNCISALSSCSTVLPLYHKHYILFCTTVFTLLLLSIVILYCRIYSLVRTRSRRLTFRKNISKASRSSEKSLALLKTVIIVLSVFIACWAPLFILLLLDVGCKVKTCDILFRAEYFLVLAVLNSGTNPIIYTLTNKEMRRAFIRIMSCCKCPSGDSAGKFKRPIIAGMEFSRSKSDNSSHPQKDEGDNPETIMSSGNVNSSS

In the case of `CCc1cc(/C(C)=N/OCc2ccc(-c3cnc(F)cn3)c(C)c2)ccc1CN1CC[C@@H](C(=O)O)C1` [Compound 95, (R, E)-1-(2-ethyl-4-(1-(((4-(5-fluoropyrazin-2-yl)-3-methylbenzyl)oxy)imino)ethyl)benzyl)pyrrolidine-3-carboxylic acid], the half-maximal effective concentration (EC50) is 125 ± 14.5 nM at hS1P1 and 75.4 ± 5.72 nM at hS1P4.

`CCc1cc(/C(C)=N/OCc2ccc(-c3cnc(F)cn3)c(C)c2)ccc1CN1CC(C(=O)O)C1` [Compound 91, (E)-1-(2-ethyl-4-(1-(((3-methyl-4-(5-fluoropyrazin-2-yl)-benzyl)oxy)imino)ethyl)benzyl)azetidine-3-carboxylic acid] showed a half-maximal effective concentration (EC50) on hS1P1 of 54.45 ± 0.2 nM.

In turn, `CCc1cc(/C(C)=N/OCc2ccc3ccccc3c2)ccc1CN1CC(C(=O)O)C1` [Compound 15] came in with a 50% effective concentration (EC50) at hS1P4 of 560 ± 185 nM.

As to `CCc1cc(/C(C)=N/OCc2cccc(C(F)(F)F)c2)ccc1CN1CC(C(=O)O)C1` [Compound 13], on hS1P1, a half-maximal effect (EC50) was put at 5100 ± 1510 nM.

As to `CCc1cc(/C(C)=N/OCc2ccc(-c3cnc(F)nc3)c(C)c2)ccc1CN1CC[C@H](C(=O)O)C1` [Compound 80, (S, E)-1-(2-ethyl-4-(1-(((4-(2-fluoropyrimidin-5-yl)-3-methylbenzyl)oxy)imino)ethyl)benzyl)pyrrolidine-3-carboxylic acid], at hS1P4, the 50% effective concentration (EC50) was determined as 18 ± 0.525 nM.

The compound `CCc1cc(/C(C)=N/OCc2ccc(-c3cnc(F)cn3)c(C)c2)ccc1CN1CCC(C(=O)O)CC1` [Compound 90, (E)-1-(2-ethyl-4-(1-(((3-methyl-4-(5-fluoropyrazin-2-yl)-benzyl)oxy)imino)ethyl)benzyl)piperidine-4-carboxylic acid] yielded an EC50 on hS1P1 of 5950 ± 72.8 nM.

Regarding `CCc1cc(/C(C)=N/OCc2ccc(-c3cnc(F)cn3)c(F)c2)ccc1CN1CC[C@H](C(=O)O)C1` [Compound 88, (S, E)-1-(2-ethyl-4-(1-(((3-fluoro-4-(5-fluoropyrazin-2-yl)benzyl)oxy)imino)ethyl)benzyl)pyrrolidine-3-carboxylic acid], the results for the EC50 on hS1P1 and on hS1P4 were 3210 ± 112 nM and 27.4 ± 1.12 nM, respectively.

For `CCc1cc(/C(C)=N/OCc2ccc(-c3ccns3)cc2)ccc1CN1CC[C@H](C(=O)O)C1` [Compound 75], the EC50 at hS1P4 came out at 34.17 ± 0.22 nM.

For the compound `CCc1cc(/C(C)=N/OCc2ccc(-c3cnc(F)cn3)cc2)ccc1CN1CC[C@H](C(=O)O)C1` [Compound 89], the concentration giving a half-maximal response (EC50) at hS1P1 was 5250 ± 235 nM; on hS1P4, 135 ± 17.8 nM.

Compound `CCc1cc(/C(C)=N/OCc2ccc(-c3cnc(F)cn3)c(C)c2)ccc1CN1CCC(C(=O)O)C1` (stereo not drawn) [Compound 4, (E)-1-(2-ethyl-4-(1-(((4-(5-fluoropyrazin-2-yl)-3-methylbenzyl)oxy)imino)ethyl)benzyl)pyrrolidine-3-carboxylic acid] returned an EC50 on hS1P4 of 10.6 ± 1.19 nM.

Take `CCc1cc(/C(C)=N/OCc2ccc(-c3cnc(F)cn3)c(C)c2F)ccc1CN1CC[C@H](C(=O)O)C1` [Compound 93, (S, E)-1-(2-ethyl-4-(1-(((2-fluoro-4-(5-fluoropyrazin-2-yl)-3-methylbenzyl)oxy)imino)ethyl)benzyl)pyrrolidine-3-carboxylic acid]: the EC50 is 348 ± 40.4 nM on hS1P1 and 12 ± 1 nM on hS1P4.

`CCc1cc(/C(C)=N/OCc2ccc(-c3cncnc3C)c(C)c2)ccc1CN1CC[C@H](C(=O)O)C1` [Compound 83, (S, E)-1-(2-ethyl-4-(1-(((3-methyl-4-(4-methylpyrimidin-5-yl)benzyl)oxy)imino)ethyl)benzyl)pyrrolidine-3-carboxylic acid] showed a concentration for a half-maximal effect (EC50) at hS1P4 of 40.95 ± 0.22 nM.

On hS1P4, `CCc1cc(/C(C)=N/OCc2ccc(-c3cnsc3)cc2)ccc1CN1CC[C@H](C(=O)O)C1` [Compound 74] had an EC50 of 13.13 ± 0.02 nM.

The compound `CCc1cc(/C(C)=N/OCc2ccc(-c3cccs3)cc2)ccc1CN1CC[C@H](C(=O)O)C1` [Compound 73] registered an EC50 on hS1P4 of 10.7 ± 0.11 nM.

`CCc1cc(/C(C)=N/OCc2ccc(OC(C)C)c(C#N)c2)ccc1CN1CC(C(=O)O)C1` [Compound 16, (E)-1-(4-(1-(((3-cyano-4-isopropoxybenzyl)oxy)imino)ethyl)-2-ethylbenzyl)azetidine-3-carboxylic acid] returned a concentration for a half-maximal effect (EC50) on hS1P1 of 23.2 ± 10.9 nM.

In the case of `C/C(=N\OCc1ccc(C2CCCCC2)c(C(F)(F)F)c1)c1ccc(CN2CC(C(=O)O)C2)c(F)c1` [Compound 11], the 50% effective concentration (EC50) at hS1P1 amounted to 5.63 ± 0.15 nM; at hS1P4 it was 573 ± 106 nM.

As for `CCc1cc(/C(C)=N/OCc2cc(C)c(-c3cnc(F)cn3)cc2F)ccc1CN1CC[C@H](C(=O)O)C1` [Compound 94, (S, E)-1-(2-ethyl-4-(1-(((2-fluoro-4-(5-fluoropyrazin-2-yl)-5-methylbenzyl)oxy)imino)ethyl)benzyl)pyrrolidine-3-carboxylic acid], the EC50 on hS1P1 was 614 ± 50.2 nM; on hS1P4, 13.9 ± 1.48 nM.

For the compound `C[C@]12C=CC(=O)C=C1CC[C@@H]1[C@@H]2[C@@H](O)C[C@@]2(C)[C@H]1CC[C@]2(O)C(=O)CO` [prednisolone, reference compound], in data set [1] (after 21 days of treatment), the “grip strength (ratio of grip strength to body weight)” value is on record as “significantly increased”. In addition, the “collagen deposition (collagen area ratio)” value in data set [1] (after administration) and in data set [2] (setting [3]) was “significantly reduced collagen deposition” in each case. In addition, the “serum creatine kinase level” value in data set [1] (after treatment) was “no such lowering effect; also recorded: no reduction”; in data set [2] (1 mg/kg intragastric once daily, after treatment), “significantly reduced”. Besides, in data set [1] (compared with the model group), the “body weight gain trend” value is given as “relatively slow”. For the same compound, the “number of centrally nucleated fibers (HE staining)” value in data set [2] (setting [3]) was “significantly reduced”. Further, the “body weight growth trend” value in data set [2] (1 mg/kg intragastric once daily, compared with the model group) is “no difference”. Besides, the “macrophage content (F4/80 immunofluorescence, muscle inflammation)” value in data set [2] (intragastric once daily) is given as “significantly reduced macrophage content”.

The compound `CCc1cc(/C(C)=N/OCc2ccc(-c3cncnc3)cc2)ccc1CN1CC[C@H](C(=O)O)C1` [Compound 70, (S, E)-1-(2-ethyl-4-(1-(((4-(pyrimidin-5-yl)benzyl)oxy)imino)ethyl)benzyl)pyrrolidine-3-carboxylic acid] displayed an EC50 on hS1P4 of 36.2 ± 6.58 nM.

A word on the EC50: it is the midpoint of the concentration-response curve.

The values above are taken from EP4792811A1, “S1PR4 REGULATOR COMPOUND FOR MUSCLE DISEASE TREATMENT AND APPLICATION THEREOF” (Shengyuan Zetong (Shanghai) Pharmaceutical Co., Ltd, priority 2023, dated 2025).
